Source: ChEMBL document CHEMBL1125987, “C8-substituted derivatives of 2-(dipropylamino)tetralin: Palladium-catalyzed synthesis and interactions with 5-HT1A-receptors” (Bioorg Med Chem Lett, 1991)

Tests used:
[1] = test system: Rattus norvegicus; assay: (§1) In vivo inhibition of L-uM/Kg; type: functional
[2] = test system: Rattus norvegicus; assay: Agonism to 5-HT1A receptor was measured by the accumulation of DOPA in limbic region of non pretreated rats subcutaneously at 0.32 um/Kg; type: functional, Limbic system
[3] = biological target: T1, 5-hydroxytryptamine receptor 1A (Rattus norvegicus) (UniProt P19327); assay: (§2) Inhibition of [3H]- 8-OH-DPAT binding to 5-HT1A-receptor from rat cerebral cortex membranes; type: cell membranes; settings: Membrane
T1 sequence (whole entry): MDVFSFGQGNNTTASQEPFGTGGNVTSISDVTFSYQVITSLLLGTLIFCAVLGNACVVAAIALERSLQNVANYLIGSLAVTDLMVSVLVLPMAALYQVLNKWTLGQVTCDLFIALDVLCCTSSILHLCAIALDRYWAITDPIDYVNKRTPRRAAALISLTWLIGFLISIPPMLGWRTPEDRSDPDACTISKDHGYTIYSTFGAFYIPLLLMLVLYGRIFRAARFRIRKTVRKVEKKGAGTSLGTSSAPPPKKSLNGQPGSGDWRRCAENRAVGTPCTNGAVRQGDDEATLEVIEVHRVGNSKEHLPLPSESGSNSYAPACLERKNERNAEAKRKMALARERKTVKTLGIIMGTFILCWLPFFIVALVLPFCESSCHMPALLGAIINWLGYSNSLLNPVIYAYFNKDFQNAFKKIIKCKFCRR

[4] = test system: Rattus norvegicus; assay: as §1; type: functional; remark: listed apart in the source
[5] = test system: Rattus norvegicus; assay: Agonism to 5-HT1A receptor was measured by the accumulation of DOPA in striatum of non pretreated rats subcutaneously at 0.32 um/Kg; type: functional
[6] = biological target: T2, 5-hydroxytryptamine receptor 1A (Rattus norvegicus, UniProt P19327); assay: as §2; type: cell membranes, Membrane
T2 sequence (P19327 whole entry): T1 sequence (whole entry)

[7] = biological target: T1, 5-hydroxytryptamine receptor 1A (Rattus norvegicus); assay: Compound evaluated for inhibiting the binding of [3H]- 8-OH-DPAT to 5-HT1A-receptor from cerebral cortex membranes of rat measured as Hill coefficient; type: tissue-based; settings: Membrane

| Structure (SMILES) | Activity [1] | Activity [2] | Hill coefficient [3] | Activity [4] | Activity [5] | Ki [6] [nM] | Hill coefficient [7] |
| --- | --- | --- | --- | --- | --- | --- | --- |
| CCCN(CCC)[C@@H]1CCc2cccc(O)c2C1 | 51.2 ng (g of tissue)-1 | 414 ng (g of tissue)-1 | 0.97 | 102 ng (g of tissue)-1 | 1280 ng (g of tissue)-1 | – | – |
| CCCN(CCC)C1CCc2cccc(C(=O)O)c2C1 (racemic) | – | – | – | – | – | > 300 | – |
| CCCN(CCC)[C@H]1CCc2ccccc2C1 | – | – | 0.83 | – | – | 56 | – |
| CCCN(CCC)[C@@H]1CCc2cccc(-c3ccccc3)c2C1 | – | – | 1 | – | – | 7.7 | – |
| CCCN(CCC)[C@@H]1CCc2cccc(OC)c2C1 | – | – | 1.11 | – | – | 1.5 | – |
| CCCN(CCC)[C@H]1CCc2cccc(C(C)=O)c2C1 | 58.5 ng (g of tissue)-1 | 365 ng (g of tissue)-1 | 0.71 | 89 ng (g of tissue)-1 | 1098 ng (g of tissue)-1 | 0.7 | – |
| CCCN(CCC)[C@H]1CCc2cccc(-c3ccccc3)c2C1 | – | – | 1.04 | – | – | 24 | – |
| CCCN(CCC)[C@@H]1CCc2cccc(C)c2C1 | – | – | 1.13 | – | – | 34 | – |
| CCCN(CCC)[C@H]1CCc2cccc(OS(=O)(=O)C(F)(F)F)c2C1 | – | – | 0.83 | – | – | 9.5 | – |
| CCCN(CCC)[C@H]1CCc2cccc(C)c2C1 | – | – | 1.04 | – | – | 62 | – |
| CCCN(CCC)[C@H]1CCc2cccc(C(=O)OC)c2C1 | – | – | – | – | – | 1.7 | 1.01 |
| CCCN(CCC)[C@H]1CCc2cccc(OC)c2C1 | – | – | 0.96 | – | – | 2.8 | – |
| CCCN(CCC)[C@@H]1CCc2cccc(C(C)=O)c2C1 | 62.1 ng (g of tissue)-1 | 399 ng (g of tissue)-1 | – | 111 ng (g of tissue)-1 | 1101 ng (g of tissue)-1 | 1.8 | 0.96 |
| CCCN(CCC)[C@H]1CCc2cccc(O)c2C1 | 55.8 ng (g of tissue)-1 | 445 ng (g of tissue)-1 | 0.86 | 112 ng (g of tissue)-1 | 1136 ng (g of tissue)-1 | – | – |
| CCCN(CCC)[C@@H]1CCc2ccccc2C1 | – | – | 0.85 | – | – | 17 | – |
| CCCN(CCC)[C@@H]1CCc2cccc(C(=O)OC)c2C1 | – | – | – | – | – | 4.3 | 0.9 |
| CCCN(CCC)[C@@H]1CCc2cccc(OS(=O)(=O)C(F)(F)F)c2C1 | – | – | 0.79 | – | – | 3.8 | – |
